Measured values as given in US20070197512A1, “Carboxylic Acid Compounds and Use Thereof” (Japan Tobacco Inc., priority 2006, published 2007).

Legend:
[1] = biological target: T1, human URAT1 (Homo sapiens, UniProt Q96S37); test: Uric acid transport inhibitory test using human URAT1-expressing cells; type: cell-based; details: human URAT1-expressing HEK293 cells, 14C-uric acid 50 μM, uptake 5 min, room temperature; read-out: hURAT1 IC50
T1 construct: Human URAT1 full length cDNA was subcloned to expression vector pcDNA3.1; expressed in transfected cells; host or cells: HEK293 cells (pcDNA3.1, geneticin-selected)
T1 sequence (Q96S37 1-553): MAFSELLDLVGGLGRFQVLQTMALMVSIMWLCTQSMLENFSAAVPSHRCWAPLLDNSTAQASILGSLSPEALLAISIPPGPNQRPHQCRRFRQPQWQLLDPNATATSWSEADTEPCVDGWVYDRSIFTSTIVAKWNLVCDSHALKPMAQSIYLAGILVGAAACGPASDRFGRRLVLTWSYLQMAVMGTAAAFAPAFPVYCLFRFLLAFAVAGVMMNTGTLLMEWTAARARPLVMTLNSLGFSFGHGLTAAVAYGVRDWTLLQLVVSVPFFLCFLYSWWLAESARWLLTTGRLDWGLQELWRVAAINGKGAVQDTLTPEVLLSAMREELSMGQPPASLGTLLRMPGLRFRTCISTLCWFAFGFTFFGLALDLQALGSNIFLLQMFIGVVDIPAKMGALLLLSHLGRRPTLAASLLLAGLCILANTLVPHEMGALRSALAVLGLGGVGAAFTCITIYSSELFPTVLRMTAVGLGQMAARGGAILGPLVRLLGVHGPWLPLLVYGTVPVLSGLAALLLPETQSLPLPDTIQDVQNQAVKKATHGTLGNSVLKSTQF
In short: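 HEK293 cells stably transfected with full-length human URAT1; mock-transfected HEK293 served as background. Uptake of 14C-uric acid (50 μM final) over 5 min at room temperature in Na-gluconate-substituted HBSS with compound, read by scintillation. IC50 derived from URAT1-specific transport (URAT1 minus mock, DMSO = 100%).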

[2] = biological target: T2, CYP2C9 (Homo sapiens, UniProt P11712); test: CYP inhibitory test using human liver microsome; type: in vitro ADME; details: model substrate diclofenac, 37° C., 10 min, read-out: CYP2C9 inhibition, IC50
T2 construct: Human liver microsome (20 mg protein/mL, 5 μL, Xenotech LLC, purchased from Lenexa Kans.); tissue Xenotech LLC; host or cells: human liver microsomes
Description: Experimental Example 2 CYP Inhibitory Test Using Human Liver Microsome
Human liver microsome (20 mg protein/mL, 5 μL, Xenotech LLC, purchased from Lenexa Kans.) was suspended in 100 mM potassium phosphate buffer (70 μL, pH 7.4), mixed with a solution (0.5 μL) of the Example compound dissolved in DMSO and preincubated at 37° C. for 5 min. NADPH producing system coenzyme solution (β-nicotinamide adenine dinucleotide phosphate: 5.2 mM, D-glucose-6-phosphate: 13.2 mM, magnesium chloride: 13.2 mM, glucose-6-phosphate dehydrogenase: 1.8 U/mL) 25 μL, and a model substrate (CYP3A4: midazolam 1 mM, CYP2D6: bufuralol 1 mM, CYP2C9: diclofenac 2 mM) 0.5 μL dissolved in DMSO were added to start the reaction. After incubation at 37° C. for 10 min., acetonitrile (200 μL) containing an internal standard substance (propranolol 1 μM) was added and the mixture was centrifuged (room temperature, 3000 rpm, 20 min). The amount of the metabolite produced from each model substrate in the supernatant was measured by high performance liquid chromatography/mass spectrometry (LC/MS/MS) and each CYP enzyme activity was determined. The concentration showing 50% inhibition (IC50) was calculated relative to the enzyme activity without addition of Example compound (DMSO 0.5 μL added) as 100%.
As a comparative example, the CYP enzyme activity of the compound described in JP-A-3-135917 was examined by determining the IC50 value in the same manner as above.

T2 sequence (P11712 whole entry): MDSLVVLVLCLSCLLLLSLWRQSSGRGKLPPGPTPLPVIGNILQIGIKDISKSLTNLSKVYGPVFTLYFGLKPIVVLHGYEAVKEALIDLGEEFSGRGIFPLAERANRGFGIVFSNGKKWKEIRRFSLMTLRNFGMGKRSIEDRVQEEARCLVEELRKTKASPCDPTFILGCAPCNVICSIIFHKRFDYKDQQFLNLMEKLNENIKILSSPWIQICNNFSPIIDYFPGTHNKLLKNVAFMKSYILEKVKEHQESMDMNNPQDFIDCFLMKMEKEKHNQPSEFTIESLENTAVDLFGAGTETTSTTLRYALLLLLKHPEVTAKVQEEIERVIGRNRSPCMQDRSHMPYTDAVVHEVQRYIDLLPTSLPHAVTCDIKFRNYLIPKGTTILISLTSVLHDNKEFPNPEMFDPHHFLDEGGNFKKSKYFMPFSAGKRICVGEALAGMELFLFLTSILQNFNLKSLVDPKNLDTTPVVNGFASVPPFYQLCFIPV

SMILES | IC50 [1] [µM] | IC50 [2] [µM]
CC(C)C1CN(C(=O)/C=C/C(=O)O)c2cc(Cl)ccc2O1 (centres unmarked) [Example 69, (E)-4-(6-chloro-2-isopropyl-2,3-dihydrobenzo[1,4]oxazin-4-yl)-4-oxo-2-butenoic acid] | ≥ 3 | > 50
Cc1cc(C)c2c(c1)N(CCC(=O)O)C(=O)[C@@H](C(C)C)O2 [Example 74, 3-((R)-2-isopropyl-6,8-dimethyl-3-oxo-2,3-dihydrobenzo[1,4]oxazin-4-yl)propionic acid] | < 0.3 | > 50
Cc1cc(Cl)cc2c1OC(C(C)C)CN2C(=O)/C=C/C(=O)O (centres unmarked) [Example 83, (E)-4-(6-chloro-2-isopropyl-8-methyl-2,3-dihydrobenzo[1,4]oxazin-4-yl)-4-oxo-2-butenoic acid] | 0.3 to 3 | > 50
Cc1cc(Cl)cc2c1OC(c1ccccc1)CN2C(=O)/C=C/C(=O)O (centres unmarked) [Example 84, (E)-4-(6-chloro-8-methyl-2-phenyl-2,3-dihydrobenzo[1,4]oxazin-4-yl)-4-oxo-2-butenoic acid] | 0.3 to 3 | > 50
Cc1c(Cl)cc2c(c1Cl)OC(C(C)C)C(=O)N2CCC(=O)O (centres unmarked) [Example 94, 3-(6,8-dichloro-2-isopropyl-7-methyl-3-oxo-2,3-dihydrobenzo[1,4]oxazin-4-yl)propionic acid] | < 0.3 | > 50
Cc1cc(Cl)cc2c1O[C@@H](C(C)C)C(=O)N2CCC(=O)O [Example 110, 3-((S)-6-chloro-2-isopropyl-8-methyl-3-oxo-2,3-dihydrobenzo[1,4]oxazin-4-yl)propionic acid] | 0.3 to 3 | > 50
CC(C)[C@@H]1Oc2c(Cl)cc(Cl)cc2N(CCC(=O)O)C1=O [Example 111, 3-((S)-6,8-dichloro-2-isopropyl-3-oxo-2,3-dihydrobenzo[1,4]oxazin-4-yl)propionic acid] | 0.3 to 3 | > 50

Second part, the compound after the results:

IC50 [1] [µM] | IC50 [2] [µM] | SMILES
< 0.3 | > 50 | Cc1cc(C)c2c(c1)N(CCC(=O)O)C(=O)[C@H](C(C)C)O2 [Example 73, 3-((S)-2-isopropyl-6,8-dimethyl-3-oxo-2,3-dihydrobenzo[1,4]oxazin-4-yl)propionic acid]
< 0.3 | > 50 | Cc1cc(C)c2c(c1)N(CCC(=O)O)C(=O)[C@@H](CC(C)C)O2 [Example 91, 3-((R)-2-isobutyl-6,8-dimethyl-3-oxo-2,3-dihydrobenzo[1,4]oxazin-4-yl)propionic acid]
< 0.3 | > 50 | CCc1cc(C)c2c(c1)N(CCC(=O)O)C(=O)C(C(C)C)O2 (centres unmarked) [Example 101, 3-(6-ethyl-2-isopropyl-8-methyl-3-oxo-2,3-dihydrobenzo[1,4]oxazin-4-yl)propionic acid]
< 0.3 | > 50 | CCCC1Oc2c(C)cc(C)cc2N(CCC(=O)O)C1=O (centres unmarked) [Example 102, 3-(6,8-dimethyl-3-oxo-2-propyl-2,3-dihydrobenzo[1,4]oxazin-4-yl)propionic acid]
< 0.3 | > 50 | CC[C@H](C)[C@H]1Oc2c(C)cc(C)cc2N(CCC(=O)O)C1=O [Example 105, 3-[(R)-2-((S)-sec-butyl)-6,8-dimethyl-3-oxo-2,3-dihydrobenzo[1,4]oxazin-4-yl]propionic acid]
< 0.3 | > 50 | Cc1cc(Cl)c2c(c1)N(CCC(=O)O)C(=O)[C@@H](C(C)C)O2 [Example 106, 3-((R)-8-chloro-2-isopropyl-6-methyl-3-oxo-2,3-dihydrobenzo[1,4]oxazin-4-yl)propionic acid]
< 0.3 | > 50 | Cc1cc(Cl)cc2c1O[C@H](C(C)C)C(=O)N2CCC(=O)O [Example 107, 3-((R)-6-chloro-2-isopropyl-8-methyl-3-oxo-2,3-dihydrobenzo[1,4]oxazin-4-yl)propionic acid]
< 0.3 | > 50 | CC(C)[C@H]1Oc2c(Cl)cc(Cl)cc2N(CCC(=O)O)C1=O [Example 108, 3-((R)-6,8-dichloro-2-isopropyl-3-oxo-2,3-dihydrobenzo[1,4]oxazin-4-yl)propionic acid]
0.3 to 3 | > 50 | Cc1cc(Cl)c2c(c1)N(CCC(=O)O)C(=O)[C@H](C(C)C)O2 [Example 109, 3-((S)-8-chloro-2-isopropyl-6-methyl-3-oxo-2,3-dihydrobenzo[1,4]oxazin-4-yl)propionic acid]
